# In patent publication US8883841B2, “Oncogenic ras-specific cytotoxic compound and methods of use thereof” (The Board of Regents of the University of Texas System, priority 2005, dated 2014):
# Read-outs that look alike come from different tables or passages of the source.
# Columns and labels:
# [1] = system: T29 cells
# [2] = system: Icmt−/− MEF; assay: Icmt-dependent growth inhibition, Icmt−/− MEF; type: cell-based, mouse; details: up to 100 μM
# Description: Oncrasin and Oncrasin Analogs. Chemically, Oncrasin-1 has the same core structure as indole-3-carbinol, a naturally occurring constituent of many plant foods that has been tested for the prevention and treatment of cancer (Brignall, 2001; Kelloff et al., 1996; Chinni et al., 2001). Oncrasin-1 also has structural similarity to sulindac (Taylor et al., 2000; Sun et al., 2002) and lonidamine (Ravagnan et al., 1999; Papaldo et al., 2003), both of which have been evaluated preclinically and clinically for treatment of cancers. […] Oncrasin compounds also bear a indole core structure as the small-molecule inhibitor of isoprenylcysteine carboxylmethyltransferase (Icmt), 2-[5-(3-methylphenyl)-1-octyl-1H-indol-3-yl]acetamide (cysmethynil), which also induces antitumor activity in Ras gene mutant cancer cells (Winter-Vann et al., 2005). […] Both wild-type MEF and Icmt−/− MEF (Bergo et al., 2004) (kindly provided by Dr. S G Young at the University of California, San Francisco) were resistant to Oncrasin-1.
# [3] = system: Rad51; assay: Antibody staining, subcellular localization of Rad51; type: cell-based, human; details: T29Kt1 cells
# Description: Effects on RNA spliceosome. To investigate the nature of this PKCiota aggregates in the nucleus, the effect of Oncrasin-1 on SC35, a protein required for RNA splicing and assembly of spliceosome (Fu et al., 1992; Vellard et al., 1992), and on Rad51, a homologous DNA recombinase that involves in DNA repair (Benson et al., 1994; Baumann et al., 1996) were studied. […] and DNA repairing are the two important functions executed in the nucleus. In untreated or DMSO-treated cells, SC35 was localized in nucleus as speckles, either diffusely distributed or concentrated as granule clusters (Mistele et al., 1997), whereas Rad51 was more uniformly distributed inside the nucleus. […] This aggregation of SC35 was not observed in Oncrasin resistant T29 cells upon the treatment with Oncrasin-1. […] The effects of Oncrasin on another spliceosome protein, alternative splicing factor/splicing factor 2 (ASF/SF2), was studied (Krainer et al., 1991). […] In the resistant T29 cells, however, such an aggregation is not observed (FIG. 8C).
# [4] = system: Raf-1 mRNA; assay: RT-PCR analysis of Raf-1 mRNA in H460 cells; type: cell-based, human
# Method: FIGS. 10A-10D Effect of Oncrasin-1 on Raf-1 expression. (FIG. 10A) H460 cells were treated with various concentrations of Oncrasin-1 and harvested 24 h later for Western blot analysis. (FIG. 10B) Reverse transcriptase-based polymerase chain reaction (RT-PCR) assay. H460 cells treated with 1 μM Oncrasin-1 for various times or at various concentrations for 24 h, as indicated. (+, −, positive and negative controls). […] (FIG. 10D) Dose effects of Oncrasin-1 on stable cell lines transfected with Raf-1 plasmids. Parental H460 cells and H460 cells transfected with wild-type Raf-1 (Raf-1), constitutive Raf-1 (Raf-1C), or dominant-negative Raf-1 Raf-1/DN) were treated with various concentrations of Oncrasin-1, and cell viability was determined by SRB assay.
# Suppression of Raf-1 expression by Oncrasin-1. […] To elucidate the roles of Raf-1 in Oncrasin-induced apoptosis, the inventors evaluated the expression of Raf-1 in H460 cells after treatment with different concentrations of Oncrasin-1. […] Because Raf-1 executes anti-apoptosis function via a variety of pathways. […] However, the resistance to Oncrasin-1 was more prominent in the constitutively active Raf-1-transfected cells than in cells with the wild-type Raf-1 (FIG. 10C and FIG. 10D).
# [5] = system: PKCiota; assay: Immunohistochemical staining, subcellular localization of PKCiota; type: cell-based, human
# Method: Effects on subcellular localization of PKCiota. […] To further investigate molecular mechanisms of Oncrasin action the inventors studied the subcellular localization of several molecules involved in Ras-signaling pathway because the functions of Ras and other proteins are directly related to their subcellular localizations. For this purpose, T29Kt1 or H460 cells were seeded on cover glass slides and treated with DMSO or Oncrasin-1 for 12 h. Cells were then fixed with paraformaldehyde, permeabilized with Triton X-100 and stained with various antibodies for immunohistochemical examination. […] Nevertheless, substantial subcellular localization change was detected for PKCiota after Oncrasin-1 treatment (FIG. 6). In both H460 and T29Kt1 cells, both PKCiota and PKCzeta were diffusely distributed in cells with high concentration on cell membrane in nucleus, consisting with previous reports that aPKC contains both nuclear localization signal (NLS) and nuclear export signal (NES), and can shuttle between cytoplasm and nucleus, which was regulated by intramolecular conformational changes, phosphorylation or by treatment with growth factors (Perander et al., 2001; White et al., 2002; Neri et al., 1999). […] Such aggregation of PKCiota was not observed in Oncrasin-resistant T29 and H1299 cells. The inventors then tested whether PKCiota aggregation in the nucleus can be induced by other chemotherapeutic agents such as 5-fluorouracil (5-FU) and paclitaxol.
# [6] = system: PKCiota knockdown T29Kt1 cells; assay: Cell viability in stable PKCiota knockdown T29Kt1 cells; type: cell-based, human
# Method: Knockdown of PKCiota suppressed Oncrasin-mediated apoptosis and cytotoxicity. To investigate possible role of PCKiota in Oncrasin-1 mediated cytotoxicity, PKCiota was knocked down in H460 cells by using oligo ribonucleotides. H460 cells were treated with 200 pM PKCiota siRNA for 24 h, and then with DMSO or 1 μM Oncrasin for another 12 h. After that, cells harvested for analysis of apoptosis by fluorescence-activated cell sorting (FACS) and for expression of PKCiota by Western blot analysis. […] To further study the effect of atypical PKC in Oncrasin-induced cytotoxicity, the inventors obtained plasmids encoding PKCiota and PKCzeta siRNA from Origene Corporation and made stable PKCiota and PKCzeta knockdown T29Kt1 cells. […] The IC50 in PKCiota knockdown T29Kt1 cells were 100 fold higher than parental T29K cells. […] Thus, compounds with synthetic lethality for PKCiota might be useful for treatment of those cancers.
smiles,measurement,setting,value
"O=Cc1cn(Cc2ccc(Cl)cc2)c2ccccc12 [Oncrasin K001, 1H-Indole-3-carboxaldehyde, 1-[(4-chlorophenyl)methyl]-(9CI)]",toxicity to T29 cells,[1]; at 33 μM (the highest concentration tested),not toxic
same,toxicity to T29 cells,[1]; at any of the doses tested (dose response),not toxic
same,cytotoxicity in T29 cells,"[1]; up to 100 μM, the highest concentration tested",no detectable cytotoxicity
same,"growth inhibition, Icmt−/− MEF",[2],resistant
same,effect on Rad51,[3],no obvious effect
same,Raf-1 mRNA level,[4],decreased in a dose- and time-dependent fashion
same,"PKCiota aggregation in the nucleus, H460 cells",[5]; 12 h,aggregation of PKCiota into large foci in nucleus
same,"PKCiota aggregation in the nucleus, T29Kt1 cells","[5]; 12 h, comparators at doses giving similar cell killing",aggregation of PKCiota into large foci in nucleus
same,"PKCiota aggregation, T29 and H1299 cells",[5]; Oncrasin-resistant cells,not observed
same,susceptibility of stable PKCiota knockdown T29Kt1 cells,[6]; cell viability analysis,almost complete resistance
same,IC50 in PKCiota knockdown T29Kt1 cells relative to parental T29K cells,[6]; stable knockdown,100 fold
